According to the supplement of paper PMC4932681:
Structures can show the parent of a compound that is named as a salt.

Key:
Test in all cases: viability inhibition at highest dose (% inhibition); higher = more growth inhibition
[1] = system: BT-474 Tam1; settings: 4-OH-tamoxifen in medium 1 µM; 72 h
Procedure: (§1)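 Percent inhibition of viability (CellTiter-Glo, 72 h) at the highest tested concentration (D5), normalised to DMSO (0%) and 100 µM benzethonium chloride (100%). Resistant lines and the 'in 1µM tamoxifen' arms were tested in 1 µM 4-OH-tamoxifen.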

[2] = system: T-47D Tam2; settings: 4-OH-tamoxifen in medium 1 µM; 72 h
Procedure: as §1

[3] = system: T-47D Tam1; settings: 4-OH-tamoxifen in medium 1 µM; 72 h
Procedure: as §1

[4] = system: BT-474; settings: 72 h
Procedure: as §1

[5] = system: T-47D; settings: 72 h
Procedure: as §1

[6] = system: BT-474 Tam2; settings: 4-OH-tamoxifen in medium 1 µM; 72 h
Procedure: as §1

[7] = system: MCF-7; settings: 72 h
Procedure: as §1

[8] = system: ZR-75-1; settings: 72 h
Procedure: as §1

[9] = system: ZR-75-1 Tam2; settings: 4-OH-tamoxifen in medium 1 µM; 72 h
Procedure: as §1

[10] = system: ZR-75-1 Tam1; settings: 4-OH-tamoxifen in medium 1 µM; 72 h
Procedure: as §1

[11] = system: MCF-7 Tam1; settings: 4-OH-tamoxifen in medium 1 µM; 72 h
Procedure: as §1

| SMILES | viability inhibition at highest dose [1] | viability inhibition at highest dose [2] | viability inhibition at highest dose [3] | viability inhibition at highest dose ([4]; 4-OH-tamoxifen in medium 0 µM) | viability inhibition at highest dose ([4]; 4-OH-tamoxifen in medium 1 µM) | viability inhibition at highest dose ([5]; 4-OH-tamoxifen in medium 0 µM) | viability inhibition at highest dose ([5]; 4-OH-tamoxifen in medium 1 µM) | viability inhibition at highest dose [6] | viability inhibition at highest dose ([7]; 4-OH-tamoxifen in medium 0 µM) | viability inhibition at highest dose ([7]; 4-OH-tamoxifen in medium 1 µM) | viability inhibition at highest dose ([8]; 4-OH-tamoxifen in medium 0 µM) | viability inhibition at highest dose ([8]; 4-OH-tamoxifen in medium 1 µM) | viability inhibition at highest dose [9] | viability inhibition at highest dose [10] | viability inhibition at highest dose [11] |
| --- | --- | --- | --- | --- | --- | --- | --- | --- | --- | --- | --- | --- | --- | --- | --- |
| Cc1c(CN2CCN(C(=O)[C@H](C)O)CC2)sc2c(N3CCOCC3)nc(-c3cnc(N)nc3)nc12 [GDC-0980] (drug 10000 nM) | 87.4 | 64 | 67.1 | 60.1 | 86.3 | 73.8 | 72.1 | 84.3 | 74 | 73.4 | 64.4 | 56.3 | 72.1 | 66.6 | 52.1 |
| C[C@@H]1C=C2C(=O)O[C@@H]3CC[C@H](C1)[C@]23O [Galiellalactone] (drug 50000 nM) | 50.9 | 40.6 | 41.4 | -0.142 | 54.5 | 59.8 | 54.7 | 3.76 | 72.3 | 14.4 | -10.5 | -3.25 | 1.46 | 4.34 | -3.64 |
| COc1cc2ncnc(Nc3ccc(F)c(Cl)c3)c2cc1OCCCN1CCOCC1 [Gefitinib] (drug 10000 nM) | 97.7 | 47.3 | 34.2 | 86.4 | 96.6 | 12.1 | 8.3 | 96.8 | 28 | 35.6 | 13.1 | 27.5 | 18.6 | 22.2 | 14.2 |
| COC1=C2C[C@@H](C)C[C@H](OC)[C@H](O)[C@@H](C)/C=C(\C)[C@H](OC(N)=O)[C@@H](OC)/C=C\C=C(/C)C(=O)NC(=CC1=O)C2=O [Geldanamycin] (drug 10000 nM) | 83.6 | 67.1 | 82.4 | 67.6 | 69.7 | 73.3 | 74.9 | 82.1 | 85.8 | 78.5 | 62 | 80.5 | 66.7 | 69 | 58.9 |
| Nc1ccn([C@@H]2O[C@H](CO)[C@@H](O)C2(F)F)c(=O)n1 [Gemcitabine] (drug 1000 nM) | 1.24 | 21.5 | 25.9 | -11.7 | -4.83 | 32.3 | 7.44 | -10.3 | 25.8 | 4.61 | 16.9 | 19.4 | 11.2 | 9.23 | -2.89 |
| CC(C)C[C@H](NC(=O)[C@@H](COC(C)(C)C)NC(=O)[C@H](Cc1ccc(O)cc1)NC(=O)[C@H](CO)NC(=O)[C@H](Cc1c[nH]c2ccccc12)NC(=O)[C@H](Cc1cnc[nH]1)NC(=O)[C@@H]1CCC(=O)N1)C(=O)N[C@@H](CCCNC(=N)N)C(=O)N1CCC[C@H]1C(=O)NNC(N)=O [Goserelin acetate] (drug 10000 nM) | 4.09 | 13 | 3.41 | -9.97 | -17.3 | -9.98 | -8.33 | 3.49 | -35 | 2.51 | -9.52 | -3.92 | -3.44 | 3.63 | -8.86 |
| NC(=O)NO [Hydroxyurea] (drug 100000 nM) | 6.52 | 1.81 | -2.99 | -6.12 | 14.5 | -10.4 | 7.44 | 5.16 | -13.2 | 12.6 | -5.61 | 3.11 | -8.32 | 2.07 | 1.25 |
| CC(C)n1nc(-c2ccc3oc(N)nc3c2)c2c(N)ncnc21 [INK128] (drug 1000 nM) | 72.6 | 36.7 | 58.8 | 36.7 | 62.9 | 66.7 | 46.4 | 44.1 | 70.3 | 52.4 | 61.2 | 51.9 | 66 | 52.7 | 35.9 |
| CC(=O)[C@]1(O)Cc2c(O)c3c(c(O)c2[C@@H](O[C@H]2C[C@H](N)[C@H](O)[C@H](C)O2)C1)C(=O)c1ccccc1C3=O [Idarubicin] (drug 1000 nM) | 87.9 | 45.9 | 83.7 | 77.2 | 96.2 | 68.9 | 59.5 | 65 | 80.6 | 66.6 | 61.7 | 52.2 | 62.4 | 55.2 | 39.5 |
| O=P(O)(NCCCl)NCCCl [Ifosfamide mustard] (drug 10000 nM) | -11.5 | -1.32 | -3.5 | -4.47 | -15.1 | -13.8 | -10.1 | -5.04 | -19.2 | -14.2 | -10.9 | -4.6 | 0.309 | 1.78 | -11 |
| O=P1(NCCCl)OCCCN1CCCl (stereo not given) [Ifosfamide] (drug 10000 nM) | 2.59 | 1.35 | -0.131 | -8.04 | 1.1 | -16.4 | -8.32 | -0.857 | -17.9 | 17.3 | -8.49 | -7.06 | -4.83 | 2.45 | -4.9 |
| Cc1ccc(NC(=O)c2ccc(CN3CCN(C)CC3)cc2)cc1Nc1nccc(-c2cccnc2)n1 [Imatinib] (drug 10000 nM) | 49.1 | 20.5 | 3.96 | -0.39 | 23.3 | 10.4 | 5.9 | 27.2 | -13.1 | 11.1 | 0.33 | 17.8 | 8.38 | 7.91 | 4.63 |
| CC(C)Cn1cnc2c(N)nc3ccccc3c21 [Imiquimod] (drug 10000 nM) | 8.22 | 15.3 | 8.8 | 9.75 | 18.4 | 16.1 | 10.4 | 11.8 | -14.1 | 15.9 | 0.432 | 2.78 | -8.03 | -4.93 | 5.29 |
| O=C(Nc1ccncc1)C(=O)c1cn(Cc2ccc(Cl)cc2)c2ccccc12 [Indibulin] (drug 10000 nM) | 7.16 | 4.46 | 13 | 7.67 | 28.2 | 2.62 | 12 | 8.07 | 36.4 | 33.7 | 9.44 | -3.66 | 11.1 | 10.6 | -9.03 |
| CCc1c2c(nc3ccc(OC(=O)N4CCC(N5CCCCC5)CC4)cc13)-c1cc3c(c(=O)n1C2)COC(=O)[C@]3(O)CC [Irinotecan] (drug 10000 nM) | -9.22 | 23.3 | 34.4 | -20.2 | -25.4 | 42.8 | -0.292 | -11 | 23.7 | 23.7 | 41.6 | 30 | 44.3 | 35 | -8.36 |
| C/C(=C\c1csc(C)n1)[C@@H]1C[C@@H]2O[C@]2(C)CCC[C@H](C)[C@H](O)[C@@H](C)C(=O)C(C)(C)[C@@H](O)CC(=O)N1 [Ixabepilone] (drug 1000 nM) | 4.12 | 33.3 | 30 | -8.54 | 41 | 45.1 | 23 | -14.8 | 33.8 | 26.2 | -11.9 | -5.49 | -5.09 | -3.74 | -16.3 |
| O=C(Cc1ccc(-c2ccc(OCCN3CCOCC3)cc2)cn1)NCc1ccccc1 [KX2-391] (drug 10000 nM) | 92.7 | 47.3 | 74.1 | 41 | 82.9 | 24.2 | 25.3 | 92.2 | 44.4 | 55.3 | 41.1 | 38.6 | 47.8 | 43.1 | 16.8 |
| CS(=O)(=O)CCNCc1ccc(-c2ccc3ncnc(Nc4ccc(OCc5cccc(F)c5)c(Cl)c4)c3c2)o1 [Lapatinib] (drug 1000 nM) | 96.8 | 16.8 | 14.6 | 76.6 | 95.8 | 5.41 | -0.526 | 96.2 | 6.77 | 17.5 | 0.392 | -2.73 | -5.73 | 5.35 | 0.111 |
| Oc1ccc2c(c1)CC[C@H](c1ccccc1)[C@@H]2c1ccc(OCCN2CCCC2)cc1 [Lasofoxifene] (drug 1000 nM) | 34.3 | 5.06 | 2.67 | -9.14 | 24.2 | -21.7 | -10.6 | 12.4 | 3.8 | 25 | -9.97 | -2.22 | 2.17 | 3.54 | -2.47 |
| Nc1cccc2c1CN(C1CCC(=O)NC1=O)C2=O (stereo not given) [Lenalidomide] (drug 10000 nM) | 5.58 | -4.53 | -2.5 | -5.28 | -16.5 | -20.4 | -6.19 | 2.75 | -4.99 | 29.1 | -8.43 | -6.55 | -0.811 | 2.97 | -1.73 |
| C[C@]12O[C@H](C[C@]1(O)CO)n1c3ccccc3c3c4c(c5c6ccccc6n2c5c31)CNC4=O [Lestaurtinib] (drug 1000 nM) | 46.3 | -5.08 | -16.2 | 10.1 | 42.1 | -13.3 | 19.6 | 24.5 | 21.4 | 9.26 | 8.87 | 8.3 | 12.4 | 1.32 | 21.2 |
| N#Cc1ccc(C(c2ccc(C#N)cc2)n2cncn2)cc1 [Letrozole] (drug 10000 nM) | -6.74 | 6.57 | -0.0184 | -5.7 | -8.86 | -9.48 | 0.428 | -3.68 | -10.7 | -14.2 | -2.82 | -9.49 | -2.74 | -0.517 | -6.5 |
| c1ccc([C@H]2CN3CCSC3=N2)cc1 [Levamisole, (Tetramisole hydrochloride)] (drug 10000 nM) | -1.57 | 3.27 | -4.38 | -0.587 | -3.62 | 1.99 | -2.51 | 4.72 | -9.38 | 1.67 | 1.62 | 3.25 | 4.7 | -0.419 | -9.5 |
| Cc1ccc(F)c(NC(=O)Nc2ccc(-c3cccc4[nH]nc(N)c34)cc2)c1 [Linifanib (ABT-869)] (drug 1000 nM) | -15 | -13.7 | 5.32 | -5.83 | -19 | -7.82 | -2.26 | -11.2 | -7.63 | 4.89 | -3.03 | -10.3 | -0.131 | -5.49 | -5.44 |
| C[C@]1(O)C[C@@H](c2nc(-c3ccc4ccc(-c5ccccc5)nc4c3)c3c(N)nccn32)C1 [Linsitinib (OSI-906)] (drug 10000 nM) | 3.26 | 29 | 84.2 | -2.14 | 21.6 | 28.3 | 33.2 | 7.88 | 52.5 | 62.4 | 14.6 | 20.1 | 16.3 | 12.2 | 38.1 |
| O=NN(CCCl)C(=O)NC1CCCCC1 [Lomustine] (drug 10000 nM) | 0.268 | 7.26 | -5.12 | -2.85 | 4.76 | -10.8 | -1.44 | -2.72 | 12.6 | 13.1 | -11.7 | -5.51 | -14.9 | -0.686 | -10.9 |
| Cn1cnc2c(F)c(Nc3ccc(Br)cc3F)c(C(=O)NOCCO)cc21 [MEK-162 (ARRY-162)] (drug 1000 nM) | 2.68 | 14.1 | 17.2 | -13.3 | 6.81 | -6.66 | -10.7 | -1.22 | 12.2 | 20.8 | -6.09 | -7.06 | 7.88 | -1.39 | 10.4 |
